Source: patent US20240158355A1, “BET SUBFAMILY INHIBITORS AND METHODS USING SAME” (Baylor College of Medicine, priority 2021, published 2024)

target: BRDT-BD2 (Homo sapiens (Human), UniProt Q58F21); assay: AlphaScreen bromodomain proximity assay (competition with biotinylated (+)-JQ1), BRDT-BD2; format: binding

SMILES | IC50
CNC(=O)c1ccc(C(=O)Nc2cc(NC(=O)c3ccc4c(c3)c(-c3ccc(N)nc3C)nn4C)ccc2C)cc1 [compound 14, N^1-(5-(3-(6-Amino-2-methylpyridin-3-yl)-1-methyl-1H-indazole-5-carboxamido)-2-methylphenyl)-N^4-methylterephthalamide] | 94 nM
CC(=O)Nc1cc(NC(=O)c2ccc3c(c2)c(-c2cnc(N)cc2C)nn3C)ccc1C [compound 16, N-(3-Acetamido-4-methylphenyl)-3-(6-amino-4-methylpyridin-3-yl)-1-methyl-1H-indazole-5-carboxamide] | 126 nM
COc1ccc(NC(=O)c2ccc3c(c2)c(-c2cc4ccccc4n2C)nn3C)cc1 [compound 28, N-(4-Methoxyphenyl)-1-methyl-3-(1-methyl-1H-indol-2-yl)-1H-indazole-5-carboxamide] | 121 nM
COc1ccc(NC(=O)c2ccc3c(c2)c(-c2cc4ccccc4n2C)nn3C)cc1C [compound 29, N-(4-Methoxy-3-methylphenyl)-1-methyl-3-(1-methyl-1H-indol-2-yl)-1H-indazole-5-carboxamide] | 111 nM
COc1ccc(NC(=O)c2ccc3c(c2)c(-c2cc4ccccc4n2C)nn3C)cc1OC [compound 30, N-(3,4-Dimethoxyphenyl)-1-methyl-3-(1-methyl-1H-indol-2-yl)-1H-indazole-5-carboxamide] | 101 nM
COc1ccc(NC(=O)c2ccc3c(c2)c(-c2cc4ccccc4n2C)nn3C)cc1F [compound 31, N-(3-Fluoro-4-methoxyphenyl)-1-methyl-3-(1-methyl-1H-indol-2-yl)-1H-indazole-5-carboxamide] | 119 nM
COc1ccc(NC(=O)c2ccc3c(c2)c(-c2cc4ccccc4n2C)nn3C)cc1Cl [compound 32, N-(3-Chloro-4-methoxyphenyl)-1-methyl-3-(1-methyl-1H-indol-2-yl)-1H-indazole-5-carboxamide] | 164 nM
COc1ccc(NC(=O)c2ccc3c(c2)c(-c2cc4ccccc4n2C)nn3C)c(C)c1 [compound 33, N-(4-Methoxy-2-methylphenyl)-1-methyl-3-(1-methyl-1H-indol-2-yl)-1H-indazole-5-carboxamide] | 183 nM
COc1ccc(NC(=O)c2ccc3c(c2)c(-c2cc4ccccc4n2C)nn3C)c(OC)c1 [compound 34, N-(2,4-Dimethoxyphenyl)-1-methyl-3-(1-methyl-1H-indol-2-yl)-1H-indazole-5-carboxamide] | 926 nM
COc1ccc(NC(=O)c2ccc3c(c2)c(-c2cc4ccccc4n2C)nn3C)c(F)c1 [compound 35, N-(2-Fluoro-4-methoxyphenyl)-1-methyl-3-(1-methyl-1H-indol-2-yl)-1H-indazole-5-carboxamide] | 203 nM
COc1ccc(NC(=O)c2ccc3c(c2)c(-c2cc4ccccc4n2C)nn3C)c(Cl)c1 [compound 36, N-(2-Chloro-4-methoxyphenyl)-1-methyl-3-(1-methyl-1H-indol-2-yl)-1H-indazole-5-carboxamide] | > 1250 nM
CNC(=O)c1ccc(C(=O)Nc2cc(NC(=O)c3ccc4c(c3)c(-c3ccc(OCc5ccccc5)cc3)nn4C)ccc2C)cc1 [compound 37, N^1-(5-(3-(4-(Benzyloxy)phenyl)-1-methyl-1H-indazole-5-carboxamido)-2-methylphenyl)-N^4-methylterephthalamide] | > 10000 nM
CNC(=O)c1ccc(C(=O)Nc2cc(NC(=O)c3ccc4c(c3)c(-c3ccc(N5CCNCC5)nc3)nn4C)ccc2C)cc1 [compound 38] | > 10000 nM
CNC(=O)c1ccc(C(=O)Nc2cc(NC(=O)c3ccc4c(c3)c(-c3ccc(N5CCOCC5)nc3)nn4C)ccc2C)cc1 [compound 39, N^1-Methyl-N^4-(2-methyl-5-(1-methyl-3-(6-morpholinopyridin-3-yl)-1H-indazole-5-carboxamido)phenyl)terephthalamide] | > 10000 nM
CNC(=O)c1ccc(C(=O)Nc2cc(NC(=O)c3ccc4c(c3)c(-c3ccc(Cl)cc3)nn4C)ccc2C)cc1 [compound 40, N^1-(5-(3-(4-Chlorophenyl)-1-methyl-1H-indazole-5-carboxamido)-2-methylphenyl)-N^4-methylterephthalamide] | 106 nM
CC(=O)Nc1cc(NC(=O)c2ccc3c(c2)c(-c2ccc(Cl)cc2C)nn3C)ccc1C [compound 41, N-(3-Acetamido-4-methylphenyl)-3-(4-chloro-2-methylphenyl)-1-methyl-1H-indazole-5-carboxamide] | 58 nM
CC(=O)Nc1cc(NC(=O)c2ccc3c(c2)c(-c2ccc(Cl)cc2Cl)nn3C)ccc1C [compound 42, N-(3-Acetamido-4-methylphenyl)-3-(2,4-dichlorophenyl)-1-methyl-1H-indazole-5-carboxamide] | 320 nM
COc1ccc(NC(=O)c2ccc3c(c2)c(-c2ccncc2)nn3C)cc1 [compound 43, N-(4-Methoxyphenyl)-1-methyl-3-(pyridin-4-yl)-1H-indazole-5-carboxamide] | 978 nM
COc1ccc(NC(=O)c2ccc3c(c2)c(-c2ccncc2C)nn3C)cc1 [compound 44, N-(4-Methoxyphenyl)-1-methyl-3-(3-methylpyridin-4-yl)-1H-indazole-5-carboxamide] | 705 nM
Cc1ccc(NC(=O)c2ccc3c(c2)c(-c2ccc(N)nc2)nn3C)cc1NC(=O)C1CCN(C)CC1 [compound 45, 3-(6-Aminopyridin-3-yl)-1-methyl-N-(4-methyl-3-(1-methylpiperidine-4-carboxamido)phenyl)-1H-indazole-5-carboxamide] | 58 nM
Cc1ccc(NC(=O)c2ccc3c(c2)c(-c2ccc(N)nc2)nn3C)cc1NC(=O)N1CCNCC1 [compound 46, 3-(6-Aminopyridin-3-yl)-1-methyl-N-(4-methyl-3-(piperazine-1-carboxamido)phenyl)-1H-indazole-5-carboxamide] | 79 nM
Cc1ccc(NC(=O)c2ccc3c(c2)c(-c2ccc(N)nc2)nn3C)cc1NC(=O)C1CCCCC1 [compound 47, 3-(6-Aminopyridin-3-yl)-N-(3-(cyclohexanecarboxamido)-4-methylphenyl)-1-methyl-1H-indazole-5-carboxamide] | 113 nM
Cc1ccc(NC(=O)c2ccc3c(c2)c(-c2ccc(N)nc2)nn3C)cc1NC(=O)[C@H]1CC[C@@H](N)CC1 [compound 48, N-(3-((1s,4s)-4-Aminocyclohexane-1-carboxamido)-4-methylphenyl)-3-(6-aminopyridin-3-yl)-1-methyl-1H-indazole-5-carboxamide] | 51 nM
CNC(=O)[C@H]1CC[C@H](C(=O)Nc2cc(NC(=O)c3ccc4c(c3)c(-c3ccc(N)nc3)nn4C)ccc2C)CC1 [compound 49] | 68 nM
CN1CCC(NC(=O)c2ccc3c(c2)c(-c2ccc(N)nc2)nn3C)CC1 [compound 50, 3-(6-Aminopyridin-3-yl)-1-methyl-N-(1-methylpiperidin-4-yl)-1H-indazole-5-carboxamide] | > 200 nM
CC(=O)N1CCC(NC(=O)c2ccc3c(c2)c(-c2ccc(N)nc2)nn3C)CC1 [compound 51, N-(1-Acetylpiperidin-4-yl)-3-(6-aminopyridin-3-yl)-1-methyl-1H-indazole-5-carboxamide] | > 200 nM
Cn1nc(-c2ccc(N)nc2)c2cc(C(=O)NC3CCN(C(=O)OC(C)(C)C)CC3)ccc21 [compound 52, tert-Butyl 4-(3-(6-aminopyridin-3-yl)-1-methyl-1H-indazole-5-carboxamido)piperidine-1-carboxylate] | > 200 nM
